Experimental findings from ChEMBL document CHEMBL1145202, “A series of ligands displaying a remarkable agonistic-antagonistic profile at the adenosine A1 receptor” (J Med Chem, 2005) are described below.

A word on the Ki: it is a dissociation constant, usually derived from enzyme kinetics or from competition with a known ligand. Low values mean tighter binding, high ones weaker binding.

The target of experiment [1] is Adenosine receptor A2a (Homo sapiens) (UniProt P29274). Put plainly: Percent displacement of [3H]-ZM 241385 binding to human adenosine A2A receptor expressed in CHO cells at 1 uM. Type of experiment: cell-based.
Chain of Adenosine receptor A2a (Homo sapiens) (P29274 whole entry): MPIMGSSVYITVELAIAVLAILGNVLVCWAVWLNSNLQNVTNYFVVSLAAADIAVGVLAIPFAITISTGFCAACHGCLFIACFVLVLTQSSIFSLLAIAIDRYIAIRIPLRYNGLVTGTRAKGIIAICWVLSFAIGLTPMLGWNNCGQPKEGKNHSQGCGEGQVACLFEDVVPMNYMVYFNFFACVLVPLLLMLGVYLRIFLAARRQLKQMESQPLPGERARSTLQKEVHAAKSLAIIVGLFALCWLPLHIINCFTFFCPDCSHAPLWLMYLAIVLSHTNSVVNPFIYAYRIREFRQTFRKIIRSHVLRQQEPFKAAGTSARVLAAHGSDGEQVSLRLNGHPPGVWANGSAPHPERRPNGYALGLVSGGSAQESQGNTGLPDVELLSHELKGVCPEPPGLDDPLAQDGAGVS
Experiment [2] addresses T1, Adenosine receptor A3 (Homo sapiens) (UniProt P0DMS8).
T1 sequence (whole entry): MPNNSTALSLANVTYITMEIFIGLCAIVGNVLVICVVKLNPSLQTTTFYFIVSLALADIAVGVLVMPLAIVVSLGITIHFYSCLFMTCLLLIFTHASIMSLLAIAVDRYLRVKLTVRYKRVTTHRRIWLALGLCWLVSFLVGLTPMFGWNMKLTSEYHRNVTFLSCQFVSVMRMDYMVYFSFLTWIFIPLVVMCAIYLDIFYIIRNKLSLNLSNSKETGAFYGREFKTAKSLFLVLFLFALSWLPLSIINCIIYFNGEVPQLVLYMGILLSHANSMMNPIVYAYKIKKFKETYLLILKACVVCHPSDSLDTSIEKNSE
As to the kind of experiment: Percent displacement of [125I]AB-MECA binding to human adenosine A3 receptor expressed in HEK 293 cells at 1 uM. Type of experiment: cell-based. The settings on record: HEK293. A general note: Displacement assays read how much labelled ligand stays bound in the presence of the test substance.

Experiment [3] addresses T2, Adenosine receptor A1 (Homo sapiens) (UniProt P30542).
T2 sequence (whole entry): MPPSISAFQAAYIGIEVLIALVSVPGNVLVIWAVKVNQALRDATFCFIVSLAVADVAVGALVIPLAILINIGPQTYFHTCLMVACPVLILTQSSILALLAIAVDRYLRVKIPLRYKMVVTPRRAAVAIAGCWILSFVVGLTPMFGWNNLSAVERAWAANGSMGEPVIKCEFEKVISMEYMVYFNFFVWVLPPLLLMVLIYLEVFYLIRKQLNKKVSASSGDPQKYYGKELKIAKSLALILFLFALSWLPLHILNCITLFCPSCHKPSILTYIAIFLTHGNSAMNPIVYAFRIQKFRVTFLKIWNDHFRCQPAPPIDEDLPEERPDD
As to the kind of experiment: Effect on forskolin-induced cAMP levels at human A1 adenosine receptor compared to CPA (full agonist, 100% inhibition) and DPCPX(full inverse agonist, 100% stimulation). In kind it is functional. In general terms: cAMP levels reflect the balance of adenylyl cyclase and phosphodiesterase activity.

The next experiment deals with T3, Adenosine receptor A1 (Homo sapiens, UniProt P30542).
T3 sequence (P30542 whole entry): T2 sequence (whole entry)
Put plainly: biochemical.

Experiment [4] deals with T2, Adenosine receptor A1 (Homo sapiens). As to the kind of experiment: Percent displacement of [3H]DPCPX binding to human adenosine A1 receptor expressed in CHO cells at 1 uM. In kind it is cell-based.

`Cc1cccc(-c2c(C#N)c(N)nc(SCCO)c2C#N)c1`: the Displacement in experiment [1] turned out to be 29%; in experiment [2], 5%. Also, the Change in cAMP in experiment [3] is -78%. This molecule also displayed a Ki at Adenosine receptor A1 of 81 nM.
Regarding `N#Cc1c(N)nc(SCCO)c(C#N)c1-c1cccc(OC(F)(F)F)c1`, the Displacement in experiment [1] was found to be 3%; in experiment [2], 11%. Besides, in experiment [3], the Change in cAMP turned out to be 80%. For the same molecule, on Adenosine receptor A1, affinity was put at a Ki of 30 nM.
`N#Cc1c(N)nc(SCCO)c(C#N)c1-c1ccc(O)cc1`: the Displacement in experiment [1] came to 37%; in experiment [2], 0%. Besides, the Change in cAMP in experiment [3] is -93%. Also, the Ki at Adenosine receptor A1 amounted to 23 nM.
With `COc1ccc(-c2c(C#N)c(N)nc(SCCO)c2C#N)cc1OC`, the Displacement in experiment [4] worked out at 25%; in experiment [1], 25%; in experiment [2], 0%.
Turning to `COc1cccc(-c2c(C#N)c(N)nc(SCCO)c2C#N)c1`, the Displacement turned out to be 21% in experiment [1] and 18% in experiment [2]. In experiment [3], the Change in cAMP is -58%. The molecule also gave a Ki at Adenosine receptor A1 of 4.3 nM.
The like results for `Cc1ccc(-c2c(C#N)c(N)nc(SCCO)c2C#N)cc1` were, in that order, 20%, 0%, -16% and 49 nM.
With `N#Cc1c(N)nc(SCCO)c(C#N)c1-c1ccc(F)cc1`, the Displacement in experiment [1] was found to be 4%; in experiment [2] it was 0%. In addition, in experiment [3], the Change in cAMP was -51%. This molecule also yielded a Ki on Adenosine receptor A1 of 81 nM.
The like results for `N#Cc1c(N)nc(SCCO)c(C#N)c1-c1ccc(C(F)(F)F)cc1` were, in that order, 13%, 0%, 48% and 150 nM.
For the molecule `N#Cc1c(N)nc(SCCO)c(C#N)c1-c1ccc(OC(F)(F)F)cc1`, the values for the Displacement in experiment [1] and in experiment [2] were 0% and 10%, respectively. In addition, in experiment [3], the Change in cAMP is 12%. For the same molecule, affinity on Adenosine receptor A1 was put at a Ki of 156 nM.
`Cn1cnc2c(NC3CCCC3)ncnc21` yielded a Displacement in experiment [2] of 15%. Also, the Change in cAMP in experiment [3] was determined as 72%. Also, on Adenosine receptor A1, the Ki came out at 1080 nM.
In the case of `CCCn1c(=O)c2[nH]c(C3CCCC3)nc2n(CCC)c1=O`, the Change in cAMP in experiment [3] stood at 100%.
As to `N#Cc1c(N)nc(SCCO)c(C#N)c1-c1cccc(O)c1`, the results for the Displacement in experiment [1] and in experiment [2] were 25% and 16%, respectively. The Change in cAMP in experiment [3] was -105%. The Ki on Adenosine receptor A1 came out at 12 nM.
The matching figures for `CN(C)c1ccc(-c2c(C#N)c(N)nc(SCCO)c2C#N)cc1`: 0%, 7%, -65% and 245 nM.
Regarding `COc1ccc(-c2c(C#N)c(N)nc(SCCO)c2C#N)cc1`, the Displacement in experiment [1] amounted to 8%; in experiment [2], 21%. In addition, in experiment [3], the Change in cAMP was -16%. The molecule further yielded a Ki at Adenosine receptor A1 of 41 nM.
Consider `N#Cc1c(N)nc(SCCO)c(C#N)c1-c1ccc2c(c1)OCO2`, for which the Displacement in experiment [1] worked out at 33%; in experiment [2], 13%. Moreover, in experiment [3], the Change in cAMP is -111%. On Adenosine receptor A1, the Ki worked out at 11 nM.
The matching figures for `N#Cc1c(N)nc(SCCO)c(C#N)c1-c1cccc(F)c1`: 19%, 8%, -102% and 40 nM.
As to `N#Cc1c(N)nc(SCCO)c(C#N)c1-c1ccccc1`, the Displacement in experiment [1] stood at 23%; in experiment [2], 26%. In experiment [3], the Change in cAMP is -72%. The Ki at Adenosine receptor A1 was found to be 15 nM.
On to `OC[C@H]1O[C@@H](n2cnc3c(NC4CCCC4)ncnc32)[C@H](O)[C@@H]1O`, for which, in experiment [3], the Change in cAMP was -100%.
Consider `N#Cc1c(N)nc(SCCO)c(C#N)c1-c1cccc(OC(F)F)c1`, for which the Displacement worked out at 8% in experiment [1] and 12% in experiment [2]. Moreover, the Change in cAMP in experiment [3] amounted to 6%. The molecule also displayed a Ki at Adenosine receptor A1 of 40 nM.
The matching figures for `N#Cc1c(N)nc(SCCO)c(C#N)c1-c1ccc(OC(F)F)cc1`: 0%, 23%, 4% and 34 nM.
In the case of `N#Cc1c(N)nc(SCCO)c(C#N)c1-c1cccc(C(F)(F)F)c1`, the Displacement in experiment [1] amounted to 22%; in experiment [2] it was 49%. Besides, the Change in cAMP in experiment [3] amounted to 85%. This molecule also showed a Ki on Adenosine receptor A1 of 14 nM.
